# Laboratory results reported in ChEMBL document CHEMBL3886889, “Substituted [1,2,4]triazolo[4,3-a]pyrazines as selective NK-3 receptor antagonists” (2016).
# Key:
# Neuromedin-K receptor [1] = biological target: T1, Neuromedin-K receptor (Homo sapiens, UniProt P29371); assay: Competitive Binding Assay: The affinity of compounds of the invention for the human NK-3 receptor was determined by measuring the ability of compounds of the invention to competitively and reversibly displace a well-characterized NK-3 radioligand in a concentration-dependent manner.3H-SB222200 Binding Competition Assay with Human NK-3 ReceptorThe ability of compounds of the invention to inhibit the binding of the NK-3 receptor selective antagonist 3H-SB222200 was assessed by an in vitro radioligand binding assay. Membranes were prepared from Chinese hamster ovary recombinant cells stably expressing the human NK-3 receptor. The membranes were incubated with 5 nM 3H-SB222200 (ARC) in a HEPES 25 mM/NaCl 0.1M/CaCl2 1 mM/MgCl2 5 mM/BSA 0.5%/Saponin 10 μg/ml buffer at pH 7.4 and various concentrations of compounds of the invention. The amount of 3H-SB222200 bound to the receptor was determined after filtration by the quantification of membrane associated radioactivity using the TopCount-NXT reader (Packard).
# T1 sequence (P29371 whole entry): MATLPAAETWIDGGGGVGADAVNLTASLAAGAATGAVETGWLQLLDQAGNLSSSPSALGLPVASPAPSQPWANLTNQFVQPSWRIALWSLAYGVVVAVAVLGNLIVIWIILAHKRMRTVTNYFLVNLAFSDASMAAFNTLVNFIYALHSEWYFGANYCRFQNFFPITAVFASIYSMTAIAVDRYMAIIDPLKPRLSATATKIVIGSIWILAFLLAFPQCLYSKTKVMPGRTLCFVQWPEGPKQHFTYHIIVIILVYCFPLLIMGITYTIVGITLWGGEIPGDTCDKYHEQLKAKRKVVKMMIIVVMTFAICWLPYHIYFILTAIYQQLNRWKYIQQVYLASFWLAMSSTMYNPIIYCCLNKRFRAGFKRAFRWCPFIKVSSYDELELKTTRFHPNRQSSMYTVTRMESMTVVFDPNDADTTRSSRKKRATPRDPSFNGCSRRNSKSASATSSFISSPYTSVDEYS
# Neuromedin-K receptor [2] = biological target: T1, Neuromedin-K receptor; assay: Functional Assay: Chinese Hamster Ovary recombinant cells expressing the human NK-3 receptor and a construct that encodes the photoprotein apoaequorin were used for this assay. The antagonist activity of compounds of the invention is measured following pre-incubation (3 minutes) of the compound (at various concentrations) with the cells, followed by addition of the reference agonist (NKA) at a final concentration equivalent to the EC80 (3 nM) and recording of emitted light (FDSS 6000 Hamamatsu) over the subsequent 90-second period. The intensity of the emitted light is integrated using the reader software. Compound antagonist activity is measured based on the concentration-dependent inhibition of the luminescence response to the addition of Neurokinin A.
Ki (Neuromedin-K receptor [1]),IC50 (Neuromedin-K receptor [2]),Structure (SMILES)
150 nM,220 nM,CCC1c2nnc(-c3nc(C)ns3)n2CCN1C(=O)c1ccc(F)cc1 (racemic)
59 nM,170 nM,Cc1nsc(-c2nnc3n2CCN(C(=O)c2ccc(F)cc2)C3CCO)n1 (racemic)
